Results: EP4483904A1, “POLYOXOMETALATES AS MEMBRANE CARRIERS” (Universität Wien, priority 2023, dated 2025)

Assay: U-tube transport experiments (CF transport through chloroform layer)
Details: CF 100 µM, POM 50 µM, heptaArg 10 µM
Protocol: The U-tubes were house-made, similar to those of Rebek and Matile consisting in a small beaker with a central glass barrier, separating the two aqueous layers, cis (sampling phase) and trans (receiving phase), but allowing an interface chloroform layer below the cis and trans phases. 3 mL CHCl3 are placed into the U-tube and 1 mL of the cis (combinations of carrier (POM), cargo (heptaArg) and CF in buffer) and trans (1 mL buffer) phases were added. The organic phase was stirred at 700 rpm at room temperature. Aliquots (25 µL) from the trans phase were taken at different times, 400 µL of buffer were added and measured by fluorescence.
In the U-tube experiments, the trans phase contained only buffer, and the cis phase is loaded with combinations of CF, carrier (POM) and cargo (heptaArg). Aliquots of the trans phase are taken and evaluated by fluorescence at different times. The trans phase is initially (t= 0) nonfluorescent, but the transport of CF from the cis phase through the chloroform barrier leads to a fluorescence signal for successful transport. […] In the ternary mixture, however, as expected, highly efficient transport is observed. This is consistent with the transport of a POM•heptaArg•CF complex through the organic phase. […]

Row | Substance | carrier transport through hydrophobic bulk phase (U-tube)
1 | K4[α-P^VV^VW^VI11O40]·4H2O [[PVW11]^4-] | can seize and transport a hydrophilic cargo even through a hydrophobic bulk phase
2 | K4[α-Si^IVMo^VIW^VI11O40]·24H2O [[SiMoW11]^4-] | can seize and transport a hydrophilic cargo even through a hydrophobic bulk phase
